Source: US10647747B2, “Cyclosporin derivatives and uses thereof” (S&T Global Inc., priority 2010, dated 2020)
Where two headings read alike, the source gives them in different places. *1 amine or outer side, *2 acyl side, *3 side chain or, on linkers, in order; H or OH if unused. Where a SMILES comes first, the peptide text is derived from it. [ ]: non-standard residue; d: D form. ξ: configuration not given here. MeBmt = C/C=C/C[C@@H](C)[C@@H](O)[C@H](NC)C(=O)O; X2 = CCN(CC)CCCS[C@H](C(=O)[*:2])N(C)[*:1]; X6 = CCN(CC)CCS[C@H](C(=O)[*:2])N(C)[*:1]; X3 = CC=CCC(C)C(O)C(C(=O)[*:2])N(C)[*:1]; X5 = CSCOC(C)(C)CC(C(=O)[*:2])N(C)[*:1]; X4 = CCN(CC)CCSC(C(=O)[*:2])N(C)[*:1]; NMeIle(3ξ) = CCC(C)[C@H](NC)C(=O)O; NMeL = CN[CH](CC(C)C)C(=O)O; NMeV = CN[CH](C(=O)O)C(C)C; Abu = CC[CH](N)C(=O)O

Key:
[1] = test system: rat neuronal mitochondria; assay: Mitochondrial swelling assay (inhibition of mitochondrial permeability transition, MPT); type: biochemical; details: compound 100 nM added 5 minutes before Ca2+; swelling induced by 100 micromolar calcium chloride; absorbance 620nm; control 100
Description: The effect of cyclosporine analogs on mitochondrial permeability transition (MPT) was determined by a modified mitochondrial swelling assay measured as an influx of Ca^2+, published by J. Blattner et al., 2001, Analytical Biochem, 295, 220-226. Briefly, rat neuronal mitochondria in an ice-cold sucrose buffer were obtained after rat whole-body perfusion and a series of centrifugation. The total protein concentration in each sample batch was determined for standardization between assays. The mitochondrial swelling was induced by 100 micromolar of Calcium Chloride. Each compound (100 nM) was added to mitochondria 5 minutes before the addition of Ca^2+. The value of absorbance at the certain wavelength (620nm) reflected the degree of mitochondrial swelling. The percentage of the swelling was calculated by comparing the absorbance in the present or absent compound of the interests.

[2] = Stability testing: epimerization of cyclosporin derivatives in methanol, monitored by HPLC; type: physicochemical; details: for Epimerization % after 168 hours: Table 11, MeOH at 50° C.-58° C.
[3] = test system: HIV-1IIIB in CEM-SS cells; assay: Anti-HIV cytoprotection assay, acute infection model, MTS endpoint; type: cell-based; details: Table 17, HIV-1IIIB in CEM-SS cells, 6-day incubation, read-out: Antiviral activity EC50
Description: Anti-HIV activity of cyclosporine derivatives were evaluated by cytoprotection assay in an acute infection model using CEM-SS cells and either HIV-1IIIB or HIV-1 RF. Antiviral activity was determined as a reduction in virus-caused cytopathic effects when compounds prevent virus replication. Cytoprotection and compound cytotoxicity were evaluated using the tetrazollium dye MTS (Promega) to calculate cell viability following virus infection after 6-day incubation (Zhou G., et al., 2011, J. Med. Chem. 27, 7220-31; which is incorporated herein by reference).

[4] = test system: HCV replicon in cell line ET (luc-ubi-neo/ET), Huh7 human hepatoma; assay: HCV subgenomic replicon assay, luciferase end point; type: cell-based; details: Hepatitis C virus, read-out: Antiviral activity EC50
[5] = Table 10, MeOH at 50° C., 29 hours
[6] = Table 10, MeOH at 50° C., 77 hours
[7] = Table 10, MeOH at 50° C., 125 hours
[8] = Human immunodeficiency virus 1, 144 h

C/C=C/C[C@@H](C)[C@@H](O)[C@H]1C(=O)N[C@@H](CC)C(=O)N(C)[C@H](CSCCN(CC)CC)C(=O)N(C)[C@@H](CC(C)(C)O)C(=O)N[C@@H](C(C)C)C(=O)N(C)[C@@H](CC(C)C)C(=O)N[C@@H](C)C(=O)N[C@H](C)C(=O)N(C)[C@@H](CC(C)C)C(=O)N(C)[C@@H](CC(C)C)C(=O)N(C)[C@@H](C(C)C)C(=O)N1C
Mitochondrial Swelling Relative % [1]: 55.7%

C/C=C/C[C@@H](C)[C@@H](O)[C@H]1C(=O)N[C@@H](CC)C(=O)N(C)[C@H](SCCCN(CC)CC)C(=O)N(C)[C@@H](C(C)CC)C(=O)N[C@@H](C(C)C)C(=O)N(C)[C@@H](CC(C)C)C(=O)N[C@@H](C)C(=O)N[C@H](C)C(=O)N(C)[C@@H](CC(C)C)C(=O)N(C)[C@@H](CC(C)C)C(=O)N(C)[C@@H](C(C)C)C(=O)N1C (some centres unmarked) (cyclo(A[dA][NMeL][NMeL][NMeV][MeBmt][Abu][X2][NMeIle(3ξ)]V[NMeL]))
Epimerization % [2, 5]: 0% | Epimerization % [2, 6]: 0% | Epimerization % [2, 7]: 0%

C/C=C/C[C@@H](C)[C@@H](O)[C@H]1C(=O)N[C@@H](CC)C(=O)N(C)[C@H](SCCCN(CC)CC)C(=O)N(C)[C@@H](C(C)C)C(=O)N[C@@H](C(C)C)C(=O)N(C)[C@@H](CC(C)C)C(=O)N[C@@H](C)C(=O)N[C@H](C)C(=O)N(C)[C@@H](CC(C)C)C(=O)N(C)[C@@H](CC(C)C)C(=O)N(C)[C@@H](C(C)C)C(=O)N1C (cyclo(A[dA][NMeL][NMeL][NMeV][MeBmt][Abu][X2][NMeV]V[NMeL]))
Epimerization % [2, 5]: 0% | Epimerization % [2, 6]: 0% | Epimerization % [2, 7]: 0%

C/C=C/C[C@@H](C)[C@@H](O)[C@H]1C(=O)N[C@@H](CC)C(=O)N(C)[C@H](SCCN(CC)CC)C(=O)N(C)[C@@H](C(C)CC)C(=O)N[C@@H](C(C)C)C(=O)N(C)[C@@H](CC(C)C)C(=O)N[C@@H](C)C(=O)N[C@H](C)C(=O)N(C)[C@@H](CC(C)C)C(=O)N(C)[C@@H](CC(C)C)C(=O)N(C)[C@@H](C(C)C)C(=O)N1C (some centres unmarked) (cyclo(A[dA][NMeL][NMeL][NMeV][MeBmt][Abu][X6][NMeIle(3ξ)]V[NMeL]))
Epimerization % [2, 5]: ~4% | Epimerization % [2, 6]: ~10% | Epimerization % [2, 7]: ~16%

CC=CCC(C)C(O)C1C(=O)NC(CC)C(=O)N(C)C(SCCN(CC)CC)C(=O)N(C)C(CC(C)(C)OCSC)C(=O)NC(C(C)C)C(=O)N(C)C(CC(C)C)C(=O)NC(C)C(=O)NC(C)C(=O)N(C)C(CC(C)C)C(=O)N(C)C(CC(C)C)C(=O)N(C)C(C(C)C)C(=O)N1C (centres unmarked) (cyclo([X3][Abu][X4][X5]V[NMeL]AA[NMeL][NMeL][NMeV]); configuration not given here)
Mitochondrial Swelling Relative % [1]: 52.4%

C/C=C/C[C@@H](C)[C@@H](O)[C@H]1C(=O)N[C@@H](CC)C(=O)N(C)[C@H](CSCCN(C)C)C(=O)N(C)[C@@H](CC(C)C)C(=O)N[C@@H](C(C)C)C(=O)N(C)[C@@H](CC(C)C)C(=O)N[C@@H](C)C(=O)N[C@H](C)C(=O)N(C)[C@@H](CC(C)C)C(=O)N(C)[C@@H](CC(C)C)C(=O)N(C)[C@@H](C(C)C)C(=O)N1C (single isomer, unassigned)
Epimerization % after 168 hours [2]: 0%

C/C=C/C[C@@H](C)[C@@H](O)[C@H]1C(=O)N[C@@H](CC)C(=O)N(C)[C@H](CSCCN(CC)CC)C(=O)N(C)[C@@H](CC(C)C)C(=O)N[C@@H](C(C)C)C(=O)N(C)[C@@H](CC(C)C)C(=O)N[C@@H](C)C(=O)N[C@H](C)C(=O)N(C)[C@@H](CC(C)C)C(=O)N(C)[C@@H](CC(C)C)C(=O)N(C)[C@@H](C(C)C)C(=O)N1C (single isomer, unassigned)
Epimerization % after 168 hours [2]: 0%

C/C=C/C[C@@H](C)[C@@H](O)[C@H]1C(=O)N[C@@H](CC)C(=O)N(C)[C@H](CSCCN(C)C)C(=O)N(C)[C@@H](CC(C)(C)O)C(=O)N[C@@H](C(C)C)C(=O)N(C)[C@@H](CC(C)C)C(=O)N[C@@H](C)C(=O)N[C@H](C)C(=O)N(C)[C@@H](CC(C)C)C(=O)N(C)[C@@H](CC(C)C)C(=O)N(C)[C@@H](C(C)C)C(=O)N1C (single isomer, unassigned)
EC50 [3, 8]: 118 nM

Cc1cn([C@H]2C[C@H](N=[N+]=[N-])[C@@H](CO)O2)c(=O)[nH]c1=O [AZT]
EC50 [3]: 9 nM

C/C=C/C[C@@H](C)[C@@H](O)[C@H]1C(=O)N[C@@H](CC)C(=O)N(C)[C@H](CSCCN2CCOCC2)C(=O)N(C)[C@@H](CC(C)(C)O)C(=O)N[C@@H](C(C)C)C(=O)N(C)[C@@H](CC(C)C)C(=O)N[C@@H](C)C(=O)N[C@H](C)C(=O)N(C)[C@@H](CC(C)C)C(=O)N(C)[C@@H](CC(C)C)C(=O)N(C)[C@@H](C(C)C)C(=O)N1C [[(S)-(2-(N-Morpholino)ethylthio)methyl-Sar]-3-[(γ-hydroxy)-N-MeLeu]-4-cyclosporin]
EC50 [3, 8]: 94.9 nM | EC50 ([4]; Huh-7, HCV subgenomic replicon, cell line ET (luc-ubi-neo/ET) Huh7, luciferase end point): 60 nM | EC50 ([4]; Huh-7, Table 14, HCV replicon luciferase): 20 nM

C/C=C/C[C@@H](C)[C@@H](O)[C@H]1C(=O)N[C@@H](CC)C(=O)N(C)[C@H](SCCN(C)C)C(=O)N(C)[C@@H](CC(C)C)C(=O)N[C@@H](C(C)C)C(=O)N(C)[C@@H](CC(C)C)C(=O)N[C@@H](C)C(=O)N[C@H](C)C(=O)N(C)[C@@H](CC(C)C)C(=O)N(C)[C@@H](CC(C)C)C(=O)N(C)[C@@H](C(C)C)C(=O)N1C [drawing 1930]
Epimerization % ([2]; Table 7, MeOH at 65° C., 2 hours): ~12% | Epimerization % ([2]; Table 7, MeOH at 65° C., 4 hours): ~19% | Epimerization % ([2]; Table 7, MeOH at 65° C., 6 hours): ~23%

C/C=C/C[C@@H](C)[C@@H](O)[C@H]1C(=O)N[C@@H](CC)C(=O)N(C)[C@H](SCCCN2CCOCC2)C(=O)N(C)[C@@H](CC(C)(C)O)C(=O)N[C@@H](C(C)C)C(=O)N(C)[C@@H](CC(C)C)C(=O)N[C@@H](C)C(=O)N[C@H](C)C(=O)N(C)[C@@H](CC(C)C)C(=O)N(C)[C@@H](CC(C)C)C(=O)N(C)[C@@H](C(C)C)C(=O)N1C [drawing 1931]
Epimerization % in MeOH at 65° C. ([2]; Table 8, 2 hours): 0% | Epimerization % in MeOH at 65° C. ([2]; Table 8, 4 hours): 0% | Epimerization % in MeOH at 65° C. ([2]; Table 8, 6 hours): 0% | Epimerization % in MeOH at 65° C. ([2]; Table 8, 8 hours): Less than 1% | Epimerization % in MeOH at 65° C. ([2]; Table 8, 10 hours): ~10%

C/C=C/C[C@@H](C)[C@@H](O)[C@H]1C(=O)N[C@@H](CC)C(=O)N(C)[C@H](SCCCN2CCOCC2)C(=O)N(C)[C@@H](CC(C)(C)OC)C(=O)N[C@@H](C(C)C)C(=O)N(C)[C@@H](CC(C)C)C(=O)N[C@@H](C)C(=O)N[C@H](C)C(=O)N(C)[C@@H](CC(C)C)C(=O)N(C)[C@@H](CC(C)C)C(=O)N(C)[C@@H](C(C)C)C(=O)N1C [drawing 1932]
Epimerization % in MeOH at 65° C. ([2]; Table 9, 2 hours): 0% | Epimerization % in MeOH at 65° C. ([2]; Table 9, 4 hours): 0% | Epimerization % in MeOH at 65° C. ([2]; Table 9, 10 hours): 0% | Epimerization % in MeOH at 65° C. ([2]; Table 9, 22 hours): 0% | Epimerization % in MeOH at 65° C. ([2]; Table 9, 30 hours): 0% | Epimerization % in MeOH at 65° C. ([2]; Table 9, 38 hours): 0%

C/C=C/C[C@@H](C)[C@@H](O)[C@H]1C(=O)N[C@@H](CC)C(=O)N(C)[C@H](SCCN(C)C)C(=O)N(C)[C@@H](CC(C)C)C(=O)N[C@@H](C(C)C)C(=O)N(C)[C@@H](CC(C)C)C(=O)N[C@@H](C)C(=O)N[C@H](C)C(=O)N(C)[C@@H](CC(C)C)C(=O)N(C)[C@@H](CC(C)C)C(=O)N(C)[C@@H](C(C)C)C(=O)N1C [drawing 1933]
Epimerization % [2, 5]: ~26% | Epimerization % [2, 6]: ~32% | Epimerization % [2, 7]: ~35%

C/C=C/C[C@@H](C)[C@@H](O)[C@H]1C(=O)N[C@@H](CC)C(=O)N(C)[C@H](SCCCN2CCOCC2)C(=O)N(C)[C@@H](CC(C)(C)O)C(=O)N[C@@H](C(C)C)C(=O)N(C)[C@@H](CC(C)C)C(=O)N[C@@H](C)C(=O)N[C@H](C)C(=O)N(C)[C@@H](CC(C)C)C(=O)N(C)[C@@H](CC(C)C)C(=O)N(C)[C@@H](C(C)C)C(=O)N1C [drawing 1936]
Epimerization % [2, 5]: 0% | Epimerization % [2, 6]: 0% | Epimerization % [2, 7]: 0%

C/C=C/C[C@@H](C)[C@@H](O)[C@H]1C(=O)N[C@@H](CC)C(=O)N(C)[C@H](SCCCN2CCOCC2)C(=O)N(C)[C@@H](CC(C)(C)OC)C(=O)N[C@@H](C(C)C)C(=O)N(C)[C@@H](CC(C)C)C(=O)N[C@@H](C)C(=O)N[C@H](C)C(=O)N(C)[C@@H](CC(C)C)C(=O)N(C)[C@@H](CC(C)C)C(=O)N(C)[C@@H](C(C)C)C(=O)N1C [drawing 1937]
Epimerization % [2, 5]: 0% | Epimerization % [2, 6]: 0% | Epimerization % [2, 7]: 0%
